Experimental data as given in PubChem BioAssay AID192 (DTP/NCI, 2004).
Several values for one entry are separate records, joined by “and”; a condition that tells them apart may be missing. Identical values can stand only once. Inconclusive results and toxic doses are left out. Peptide text beside a SMILES is read from it.

Tested on: BDF1 mice, B16 melanoma ip, median survival T/C
Assay: NCI In Vivo Anticancer Drug Screen. Data for tumor model B16 Melanoma (intraperitoneal) in B6D2F1 (BDF1) mice
Settings: endpoint: median survival time, higher = longer survival
Procedure, shortened: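 Mice with transplantable tumors; drug vs vehicle groups; endpoint survival or tumor size; value = T/C.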

[1] = dose: 50.0 mg/kg/injection, schedule: Q01DX009 (ip), vehicle: Klucel (hydroxypropylcellulose) (HPC)
[2] = dose: 100.0 mg/kg/injection, schedule: Q01DX009 (ip), vehicle: Klucel (hydroxypropylcellulose) (HPC)
[3] = dose: 200.0 mg/kg/injection, schedule: Q01DX009 (ip), vehicle: Klucel (hydroxypropylcellulose) (HPC)
[4] = dose: 12.5 mg/kg/injection, schedule: Q01DX009 (ip), vehicle: saline with Tween-80
[5] = dose: 25.0 mg/kg/injection, schedule: Q01DX009 (ip), vehicle: saline with Tween-80
[6] = dose: 50.0 mg/kg/injection, schedule: Q01DX009 (ip), vehicle: saline with Tween-80
[7] = dose: 100.0 mg/kg/injection, schedule: Q01DX009 (ip), vehicle: saline with Tween-80
[8] = dose: 200.0 mg/kg/injection, schedule: Q01DX009 (ip), vehicle: saline with Tween-80
[9] = dose: 400.0 mg/kg/injection, schedule: Q01DX009 (ip), vehicle: saline with Tween-80
[10] = dose: 25.0 mg/kg/injection, schedule: Q01DX009 (ip), vehicle: Klucel (hydroxypropylcellulose) (HPC)
[11] = dose: 400.0 mg/kg/injection, schedule: Q01DX009 (ip), vehicle: Klucel (hydroxypropylcellulose) (HPC)
[12] = dose: 25.0 mg/kg/injection, schedule: Q04DX003 (ip), vehicle: saline
[13] = dose: 50.0 mg/kg/injection, schedule: Q04DX003 (ip), vehicle: saline
[14] = dose: 50.0 mg/kg/injection, schedule: Q01DX009 (ip), vehicle: saline

Compound: COC(=O)Nc1cccc(-c2nc3ccc(NC(=O)OC)cc3c(=O)n2-c2ccccc2)c1
- T/C (dose: 8.0 mg/kg/injection, schedule: Q01DX009 (ip), vehicle: Klucel (hydroxypropylcellulose) (HPC)): 107 % of control
- T/C (dose: 8.0 mg/kg/injection, schedule: Q01DX009 (ip), vehicle: saline): 112 % of control
- T/C (dose: 16.0 mg/kg/injection, schedule: Q01DX009 (ip), vehicle: Klucel (hydroxypropylcellulose) (HPC)): 107 % of control
- T/C (dose: 50.0 mg/kg/injection, schedule: Q04DX005 (ip), vehicle: other): 112 % of control
- T/C (dose: 50.0 mg/kg/injection, schedule: Q04DX006 (ip), vehicle: saline): 117 % of control
- T/C (dose: 64.0 mg/kg/injection, schedule: Q01DX009 (ip), vehicle: saline): 123 % of control
- T/C (dose: 100.0 mg/kg/injection, schedule: Q04DX005 (ip), vehicle: other): 120 % of control
- T/C (dose: 100.0 mg/kg/injection, schedule: Q04DX005 (oral), vehicle: saline): 99 % of control
- T/C (dose: 200.0 mg/kg/injection, schedule: Q04DX005 (oral), vehicle: saline): 97 % of control
- T/C (dose: 400.0 mg/kg/injection, schedule: Q04DX005 (oral), vehicle: saline): 114 % of control

Compound: [O-][n+]1c(CN2CCCCC2)nc2cccc3c2c1-c1ccccc1-3
- T/C [1]: 102 % of control
- T/C [2]: 119 % of control
- T/C [3]: 113 % of control

Compound: Nc1nc(N)c2c(Cl)c(CNc3ccc(Cl)c(Cl)c3)ccc2n1
- T/C (dose: 0.5 mg/kg/injection, schedule: Q01DX009 (ip), vehicle: saline with Tween-80): 98 % of control
- T/C (dose: 1.0 mg/kg/injection, schedule: Q01DX009 (ip), vehicle: saline with Tween-80): 96 % of control
- T/C (dose: 2.0 mg/kg/injection, schedule: Q01DX009 (ip), vehicle: saline with Tween-80): 113 % of control
- T/C (dose: 4.0 mg/kg/injection, schedule: Q01DX009 (ip), vehicle: saline with Tween-80): 107 % of control

Compound: Cc1ccc(C(C)(C)Cl)cc1O
- T/C [4]: 117 % of control
- T/C [5]: 112 % of control
- T/C [6]: 96 % of control

Compound: Cc1cc2nc(-c3ccccc3)c(-c3ccccc3)nc2cc1C
- T/C [7]: 102 % of control
- T/C [8]: 100 % of control
- T/C [9]: 91 % of control

Compound: CCc1ccccc1NC(=O)Nc1ccc(OC)cc1
- T/C [10]: 95 % of control
- T/C [1]: 87 % of control

Compound: CCCCCCC(=O)CC(C)C
- T/C [2]: 93 % of control
- T/C [3]: 90 % of control
- T/C [11]: 86 % of control

Compound: Cc1cc([N+](=O)[O-])c(Cl)cc1NS(=O)(=O)c1ccccc1
- T/C [5]: 95 % of control
- T/C [6]: 93 % of control
- T/C [7]: 90 % of control

Compound: CCNCCCOCC
- T/C (dose: 12.5 mg/kg/injection, schedule: Q04DX003 (ip), vehicle: saline): 104 % of control
- T/C [12]: 102 % of control
- T/C [13]: 102 % of control

Compound: NCCCC(N)(C(=O)O)C(F)F (centres undefined)
- T/C (dose: 50.0 mg/kg/injection, schedule: Q01DX009 (ip), vehicle: distilled water + alcohol): 94 % of control
- T/C (dose: 100.0 mg/kg/injection, schedule: Q01DX009 (ip), vehicle: distilled water + alcohol): 101 % of control
- T/C (dose: 200.0 mg/kg/injection, schedule: Q01DX009 (ip), vehicle: distilled water + alcohol): 97 % of control
- T/C (dose: 400.0 mg/kg/injection, schedule: Q01DX009 (ip), vehicle: distilled water + alcohol): 100 % of control
- T/C (dose: 800.0 mg/kg/injection, schedule: Q01DX009 (ip), vehicle: distilled water + alcohol): 110 % of control

Compound: CCOc1ccc(N=Nc2ccc(N)cc2N)cc1
- T/C [2]: 101 % of control
- T/C [3]: 106 % of control
- T/C [11]: 108 % of control

Compound: COC(=O)C(Br)C(Br)c1ccccc1 (centres undefined)
- T/C [7]: 90 % of control
- T/C [8]: 90 % of control
- T/C [9]: 90 % of control

Compound: CCSCCNC(=O)[C@@]1(O)[C@H](O)[C@]2(CC)C=CCN3CC[C@@]4(c5cc([C@@]6(OC(C)=O)C[C@H]7C=C(CC)CN(CCc8c6[nH]c6ccccc86)C7)c(OC)cc5N(C)[C@@H]14)[C@@H]32
- T/C (dose: 0.13 mg/kg/injection, schedule: Q01DX009 (ip), vehicle: water): 100 % of control
- T/C (dose: 0.25 mg/kg/injection, schedule: Q01DX009 (ip), vehicle: water): 115 % of control
- T/C (dose: 0.5 mg/kg/injection, schedule: Q01DX009 (ip), vehicle: water): 120 % of control
- T/C (dose: 1.0 mg/kg/injection, schedule: Q01DX009 (ip), vehicle: water): 155 % of control
- T/C (dose: 2.0 mg/kg/injection, schedule: Q01DX009 (ip), vehicle: water): 162 % of control

Compound: CCC1(O)CC2CN(CCc3c([nH]c4ccccc34)C(C(=O)OC)(c3cc4c(cc3OC)N(C)C3C(O)(C(=O)NCCO)C(O)C5(CC)C=CCN6CCC43C65)C2)C1 (centres undefined)
- T/C (dose: 0.2 mg/kg/injection, schedule: Q01DX009 (ip), vehicle: saline): 164 % of control
- T/C (dose: 0.22 mg/kg/injection, schedule: Q01DX009 (ip), vehicle: water): 121 % of control
- T/C (dose: 0.36 mg/kg/injection, schedule: Q01DX009 (ip), vehicle: water): 162 % of control
- T/C (dose: 0.4 mg/kg/injection, schedule: Q01DX009 (ip), vehicle: saline): 191 % of control
- T/C (dose: 0.6 mg/kg/injection, schedule: Q01DX009 (ip), vehicle: water): 161 % of control
- T/C (dose: 0.8 mg/kg/injection, schedule: Q01DX009 (ip), vehicle: saline): 218 % of control
- T/C (dose: 1.0 mg/kg/injection, schedule: Q04DX003 (ip), vehicle: saline): 155 % of control
- T/C (dose: 1.04 mg/kg/injection, schedule: Q01DX001 (ip), vehicle: water): 121 % of control
- T/C (dose: 1.44 mg/kg/injection, schedule: Q04DX003 (ip), vehicle: water): 155 % of control and 179 % of control
- T/C (dose: 1.67 mg/kg/injection, schedule: Q04DX003 (ip), vehicle: saline): 161 % of control
- T/C (dose: 2.4 mg/kg/injection, schedule: Q04DX003 (ip), vehicle: water): 155 % of control and 206 % of control
- T/C (dose: 2.9 mg/kg/injection, schedule: Q01DX001 (ip), vehicle: water): 122 % of control
- T/C (dose: 4.0 mg/kg/injection, schedule: Q04DX003 (ip), vehicle: water): 87 % of control
- T/C (dose: 648.0 micrograms/kg/injection, schedule: Q04DX003 (ip), vehicle: saline): 163 % of control
- T/C (dose: 1080.0 micrograms/kg/injection, schedule: Q04DX003 (ip), vehicle: saline): 167 % of control
- T/C (dose: 1800.0 micrograms/kg/injection, schedule: Q04DX003 (ip), vehicle: saline): 156 % of control and 182 % of control
- T/C (dose: 3000.0 micrograms/kg/injection, schedule: Q04DX003 (ip), vehicle: saline): 166 % of control and 179 % of control

Compound: O=c1[nH]c2ccc(Br)cc2c(=O)o1
- T/C [5]: 91 % of control
- T/C [6]: 91 % of control
- T/C [7]: 86 % of control and 88 % of control
- T/C [8]: 86 % of control

Compound: COC(=O)C(CCCN)NC(=O)c1ccccc1 (centres undefined)
- T/C [14]: 95 % of control
- T/C (dose: 100.0 mg/kg/injection, schedule: Q01DX009 (ip), vehicle: saline): 102 % of control
- T/C (dose: 200.0 mg/kg/injection, schedule: Q01DX009 (ip), vehicle: saline): 107 % of control
- T/C (dose: 400.0 mg/kg/injection, schedule: Q01DX009 (ip), vehicle: saline): 97 % of control

Compound: O=[N+]([O-])c1ccc(Cl)c2c([N+](=O)[O-])cccc12
- T/C [4]: 100 % of control
- T/C [5]: 91 % of control
- T/C [6]: 93 % of control and 94 % of control

Compound: CCCCNC(=S)N/N=C/c1ccccn1
- T/C [5]: 102 % of control
- T/C [6]: 99 % of control
- T/C [7]: 104 % of control

Compound: CC(C)C(NC(=O)C(N)CCC(=O)O)C(=O)O (stereo not drawn) (H-Glu-Val-OH; configuration not given here)
- T/C [6]: 109 % of control
- T/C [7]: 104 % of control
- T/C [8]: 108 % of control
- T/C [9]: 98 % of control

Compound: COC1C=CC23c4cc5c(cc4C(O)OC2CN(C)C3C1)OCO5 (centres undefined)
- T/C (dose: 6.25 mg/kg/injection, schedule: Q01DX009 (ip), vehicle: saline): 101 % of control and 109 % of control
- T/C (dose: 12.5 mg/kg/injection, schedule: Q01DX009 (ip), vehicle: saline): 98 % of control and 108 % of control
- T/C (dose: 25.0 mg/kg/injection, schedule: Q01DX009 (ip), vehicle: saline): 112 % of control and 116 % of control
- T/C [14]: 112 % of control

Compound: Cc1cccnc1C
- T/C [12]: 103 % of control
- T/C [13]: 104 % of control
- T/C (dose: 100.0 mg/kg/injection, schedule: Q04DX003 (ip), vehicle: saline): 112 % of control

Compound: Clc1ccc(Cl)c(NNc2cc(Cl)ccc2Cl)c1
- T/C [10]: 101 % of control
- T/C [1]: 95 % of control
- T/C [2]: 101 % of control

Compound: CCc1ccc(C2=C(O)C(=O)C(c3ccc(CC)cc3)=C(O)C2=O)cc1
- T/C (dose: 3.12 mg/kg/injection, schedule: Q01DX009 (ip), vehicle: saline with Tween-80): 114 % of control
- T/C (dose: 6.25 mg/kg/injection, schedule: Q01DX009 (ip), vehicle: saline with Tween-80): 103 % of control
- T/C [4]: 113 % of control and 119 % of control
- T/C [5]: 112 % of control and 122 % of control
